Experimental data as given in ChEMBL document CHEMBL4483862, “Open-source discovery of chemical leads for next-generation chemoprotective antimalarials” (2018).

Test system: Plasmodium berghei
Test: Luciferase/luciferin-expressing antifolate-resistant parasites were used to infect a culture of HepG2 cells that were pre-incubated with compounds. Infected hepatocytes emit light due to the luciferase reaction. Assay results are presented as the percent inhibition of light emission compared to control. […]
Type: functional
Conditions: sporozoite; for IC90: read-out: LUCIFERASE INFECTION ASSAY - IC90
[1] = read-out: LUCIFERASE INFECTION ASSAY - IC50

SMILES	IC50 [1] [µM]	IC90 [µM]	further results
O=C(CCc1ncc(-c2ccccc2)o1)Nc1ncccc1O	> 10	> 10	
CCN1CCCC1CNCC(=O)Nc1cc(Cl)ccc1C#N (stereo not drawn)	> 10	> 10	
O=C(CN1CCN(c2cccc(Cl)c2)CC1)Nc1cc(C2CC2)nn1-c1ccccc1		> 10	IC50 (PBLUC_HILL_SLOPE 3.16, PBLUC_R_SQUARED 0.0582, read-out: LUCIFERASE INFECTION ASSAY - IC50): 6.87 µM
Cc1cc(C)n2nc(SC(C)C(=O)N3CCCc4ccccc43)nc2n1 (stereo not drawn)	> 2	> 2	
CSc1c(-c2ccc(Cl)cc2)[nH]c2ccccc12		> 12.1	IC50 (PBLUC_HILL_SLOPE 3.51, PBLUC_R_SQUARED 0.189, read-out: LUCIFERASE INFECTION ASSAY - IC50): 11.1 µM
Cc1ccc(S(=O)(=O)c2nc(-c3ccccc3)oc2S(=O)(=O)CC(=O)NC(C)C)cc1	> 10	> 10	
Cc1cc(S(=O)(=O)c2ccc(OC(=O)CC3CCCC3)c(C)c2)ccc1OC(=O)CC1CCCC1		> 10	IC50 (HEPG2TOX_HILL_SLOPE 0.0998, HEPG2TOX_R_SQUARED 0.18, PBLUC_HILL_SLOPE 0.103, PBLUC_R_SQUARED 0.0204, read-out: LUCIFERASE INFECTION ASSAY - IC50): > 10 µM
COc1cccc(CNC(=O)Nc2ccc3nc(Cc4ccccc4)nn3c2)c1		> 10	IC50 (HEPG2TOX_HILL_SLOPE 13.6, HEPG2TOX_R_SQUARED 0.936, PBLUC_HILL_SLOPE 1.17, PBLUC_R_SQUARED 0.525, read-out: LUCIFERASE INFECTION ASSAY - IC50): 2.14 µM
O=C(c1ccc(S(=O)(=O)NCc2ccco2)cc1)N1CCc2sccc2C1c1cccs1 (stereo not drawn)	> 10	> 10	
CC(C)(C)NC(=S)N/N=C/c1cc(I)cc(I)c1O		4.23	IC50 (HEPG2TOX_HILL_SLOPE 8.65, HEPG2TOX_R_SQUARED 0.588, PBLUC_HILL_SLOPE 9.82, PBLUC_R_SQUARED 0.5, read-out: LUCIFERASE INFECTION ASSAY - IC50): 3.38 µM
c1csc(-c2nnc(Sc3ncnc4sccc34)[nH]2)c1	> 10	> 10	
Cc1cc(C(=O)Nc2nc3ccccc3[nH]2)c(C)s1	> 10	> 10	
CC(=O)c1cccc(-c2cnc3ccc(Cc4ccc(F)cc4)nn23)c1		5.55	IC50 (HEPG2TOX_HILL_SLOPE 0.753, HEPG2TOX_R_SQUARED 0.0911, PBLUC_HILL_SLOPE 6.85, PBLUC_R_SQUARED 0.304, read-out: LUCIFERASE INFECTION ASSAY - IC50): 4.02 µM
Cn1c[n+](C2=C(NS(=O)(=O)c3ccc([N+](=O)[O-])cc3)C(=O)c3ccccc3C2=O)c2ccccc21	2.53	5.03	
O=C(CC12CC3CC(CC(C3)C1)C2)NCC(=O)Nc1ccc2[nH]c(=O)[nH]c2c1	> 10	> 10	
Cc1nn(-c2ccccc2)c2nc(-c3ccccc3)c(-c3nc4ccccc4[nH]3)c(-c3ccncc3)c12		> 10	IC50 (FFLUC_HILL_SLOPE 17.6, FFLUC_R_SQUARED 0.574, PBLUC_HILL_SLOPE 2.67, PBLUC_R_SQUARED 0.448, read-out: LUCIFERASE INFECTION ASSAY - IC50): 7.61 µM
N#CC1=C2SC=C(c3ccc(Br)cc3)N2CCCC1=O	> 10	> 10	
COCc1cccc(-c2cc(-c3cc4ccccc4s3)cnc2N)c1		> 9.53	IC50 (HEPG2TOX_HILL_SLOPE 6.43, HEPG2TOX_R_SQUARED 0.192, PBLUC_HILL_SLOPE 1.27, PBLUC_R_SQUARED 0.564, read-out: LUCIFERASE INFECTION ASSAY - IC50): 5.74 µM
Cc1ccc(C(C)C)c(OCC(=O)N2CCC(c3nc4ccccc4[nH]3)CC2)c1		7.21	IC50 (PBLUC_HILL_SLOPE 4.62, PBLUC_R_SQUARED 0.766, read-out: LUCIFERASE INFECTION ASSAY - IC50): 4.48 µM
Clc1ccc(-c2csc3ncnc(NCc4ccco4)c23)cc1	> 10	> 10	
Cc1ccc2nc(NC(=O)c3cccc(Cl)c3)c(C(=O)NC3CCCC3)n2c1		1.47	IC50 (FFLUC_HILL_SLOPE 23.2, FFLUC_R_SQUARED 0.442, HEPG2TOX_HILL_SLOPE 1.26, HEPG2TOX_R_SQUARED 0.897, PBLUC_HILL_SLOPE 7.29, PBLUC_R_SQUARED 0.437, read-out: LUCIFERASE INFECTION ASSAY - IC50): 1.09 µM
Cc1cccc(/C=C(\c2nc3ccccc3[nH]2)S(=O)(=O)c2ccccc2)c1		2.31	IC50 (HEPG2TOX_HILL_SLOPE 1.77, HEPG2TOX_R_SQUARED 0.525, PBLUC_HILL_SLOPE 7.51, 3.20, PBLUC_R_SQUARED 0.576, 0.706, read-out: LUCIFERASE INFECTION ASSAY - IC50): 1.36 µM

SMILES	IC50 [1] [µM]	IC90 [µM]	further results
OC1CCC(Nc2ccn3nc(-c4cccc(OCc5ccccc5)c4)cc3n2)CC1 (stereo not drawn)		7.29	IC50 (PBLUC_HILL_SLOPE 2.85, PBLUC_R_SQUARED 0.208, read-out: LUCIFERASE INFECTION ASSAY - IC50): 3.37 µM
N#C/C(=N\Nc1cc(C(F)(F)F)cc(C(F)(F)F)c1)S(=O)(=O)c1ccc(Cl)cc1		1.73	IC50 (FFLUC_HILL_SLOPE 2.02, FFLUC_R_SQUARED 0.178, HEPG2TOX_HILL_SLOPE 2.35, HEPG2TOX_R_SQUARED 0.941, PBLUC_HILL_SLOPE 1.74, PBLUC_R_SQUARED 0.757, read-out: LUCIFERASE INFECTION ASSAY - IC50): 0.488 µM
CC(C)S(=O)(=O)c1cnc(N2CCCCC2)nc1N	> 11.6	> 11.6	
CC(c1cccnc1)N(C)C(=O)c1cc(NCc2ccc3c(c2)CCO3)cc(S(=O)(=O)N2CCCC2)c1 (stereo not drawn)	> 6.34	> 6.34	
CCc1cccc2c(/C=C(\C#N)c3nc4ccccc4[nH]3)c[nH]c12		> 10	IC50 (HEPG2TOX_HILL_SLOPE 6.57, HEPG2TOX_R_SQUARED 0.521, read-out: LUCIFERASE INFECTION ASSAY - IC50): > 10 µM
CN(C)C(=O)CNC(=O)c1ccc(C(F)(F)F)cc1	> 10	> 10	
OC[C@H]1O[C@@H](c2nc(-c3nc(-c4ccc5c(c4)OCO5)no3)cs2)C[C@@H]1O		2.15	IC50 (PBLUC_HILL_SLOPE 1.28, PBLUC_R_SQUARED 0.808, read-out: LUCIFERASE INFECTION ASSAY - IC50): 0.386 µM
O=C(Nc1nonc1-c1cccs1)c1sc2cccc(Cl)c2c1Cl	3.26	4.63	
ONC(=Nc1cccc(C(F)(F)F)c1)c1ccccc1	> 11.8	> 11.8	
COCCNC(=S)Nc1ccccc1CC(c1c[nH]c2ccccc12)c1c[nH]c2ccccc12		> 10	IC50 (PBLUC_HILL_SLOPE 10.3, PBLUC_R_SQUARED 0.121, read-out: LUCIFERASE INFECTION ASSAY - IC50): 9.41 µM
O=C(Nc1ccccc1C(=O)OCC(=O)N1c2ccccc2Sc2ccccc21)c1ccco1		> 10	IC50 (FFLUC_HILL_SLOPE 10.6, FFLUC_R_SQUARED 0.388, PBLUC_HILL_SLOPE 2.08, PBLUC_R_SQUARED 0.607, read-out: LUCIFERASE INFECTION ASSAY - IC50): 7.58 µM
O=[N+]([O-])c1ccc(N2CCN(c3ncccc3C(F)(F)F)CC2)nc1		> 9.34	IC50 (HEPG2TOX_HILL_SLOPE 6.77, HEPG2TOX_R_SQUARED 0.465, read-out: LUCIFERASE INFECTION ASSAY - IC50): > 9.34 µM
COc1ccc(CCN(C)CC(O)COc2ccc(C(C)(C)CC(C)(C)C)cc2)cc1OC (stereo not drawn)		> 10	IC50 (PBLUC_HILL_SLOPE 3.04, PBLUC_R_SQUARED 0.101, read-out: LUCIFERASE INFECTION ASSAY - IC50): 9.63 µM
CCNC(=S)NNC(=O)/C=C/c1ccccc1OC		> 10	IC50 (FFLUC_HILL_SLOPE 0.401, FFLUC_R_SQUARED 0.162, HEPG2TOX_HILL_SLOPE 12.3, HEPG2TOX_R_SQUARED 0.97, read-out: LUCIFERASE INFECTION ASSAY - IC50): > 10 µM
C=CCn1c(SCC(=O)Nc2sc(C)c(C)c2C(=O)OCC)nc2scc(-c3ccc(OC)cc3)c2c1=O		> 10	IC50 (FFLUC_HILL_SLOPE 9.8, FFLUC_R_SQUARED 0.347, HEPG2TOX_HILL_SLOPE 0.0825, HEPG2TOX_R_SQUARED 0.0539, PBLUC_HILL_SLOPE 3.18, PBLUC_R_SQUARED 0.293, read-out: LUCIFERASE INFECTION ASSAY - IC50): 5.66 µM
Cc1n(-c2ccccc2)c2c([n+]1C)C(=O)c1ccccc1C2=O		0.202	IC50 (HEPG2TOX_HILL_SLOPE 0.753, HEPG2TOX_R_SQUARED 0.901, PBLUC_HILL_SLOPE 2.16, PBLUC_R_SQUARED 0.72, read-out: LUCIFERASE INFECTION ASSAY - IC50): 0.0731 µM
Cc1c(OCC(=O)Nc2ccccc2)ccc2c1OC(C)(C)C=C2		0.79	IC50 (FFLUC_HILL_SLOPE 0.847, FFLUC_R_SQUARED 0.632, PBLUC_HILL_SLOPE 1.69, PBLUC_R_SQUARED 0.702, read-out: LUCIFERASE INFECTION ASSAY - IC50): 0.216 µM
Cc1noc2nc(C3CC3)cc(C(=O)Oc3ccc(N4CCCC4=O)cc3)c12	> 10	> 10	
c1nc(NCC23CC4CC(CC(C4)C2)C3)c2sccc2n1	> 10	> 10	
Cc1ccc(-n2c(C)cc(C(=O)COC(=O)c3cccnc3O)c2C)cc1C		6.62	IC50 (PBLUC_HILL_SLOPE 1.34, PBLUC_R_SQUARED 0.562, read-out: LUCIFERASE INFECTION ASSAY - IC50): 1.29 µM
O=C(Nc1cccc([N+](=O)[O-])c1)c1[nH]nc2ccccc12		2.96	IC50 (FFLUC_HILL_SLOPE 1.37, FFLUC_R_SQUARED 0.513, PBLUC_HILL_SLOPE 0.728, PBLUC_R_SQUARED 0.84, read-out: LUCIFERASE INFECTION ASSAY - IC50): 0.145 µM
CCOC(=O)/C(=N\Nc1sc(C(=O)OCC)c(C)c1C(=O)OCC)C(=O)c1ccccc1	7.51	9.2	
